US20150099645A1, “MEANS AND METHODS FOR DIAGNOSTICS AND TH[…] DISEASES” (priority 2012, published 2015)

Legend:
[1] = system: C57Bl/6 and Balb/c splenocytes; assay: Mixed lymphocyte reaction, XTT proliferation assay; assay type: cell-based, mouse; settings: for proliferation level: versus control (0 mM)
Procedure: Splenocytes were harvested from untreated Balb/c and C57BL/6 mice. C57BL/6 cells were incubated in a flat bottom 96 well plate for 96 h with either irradiated (1500 rads) or not irradiated Balb/c cells as indicated, at the indicated concentrations. XTT reagent for proliferation assay was added 24 h before reading. Plate was read at 620 nm.
Splenocytes were collected from spleens of C57Bl/6 and Balb/c mice and cultured ex-vivo and assayed for proliferation by XTT (tetrazolium salt). The C57Bl/6 and Balb/c cells were cultured ex-vivo together to mimic a GVHD reaction. The cells were cultured in 3 groups, having different cell concentrations: • 2×2: 2×10̂5 C57Bl/6 and 2×10̂5 balb/c cells • 1×1: 1×10̂5 C57Bl/6 and 1×10̂5 balb/c cells • 2×*2: 2×10̂5 C57Bl/6 and 2×10̂5 irradiated balb/c cells
In order to test the effect of GSK-3β activation state on cell proliferation, Lithium Chloride (a known inhibitor of GSK-3β) was added at different concentrations. […] Furthermore, it can be seen that the effect of LiCl depends on the confluence (concentration) of cells.

T cells (CD3+) = assay: GVHD mouse model, LiCl treatment of allogeneic mice, CD3+ T cells of spleen counted by flow cytometry; assay type: in vivo; settings: 2.0 mg/kg LiCl once a day, day 3 post-transplant
Procedure: Mice are divided into 3 groups (Untreated, Syngeneic and Allogeneic) per time point with 6-12 mice per group. The untreated group mice (without irradiation) were injected with plain medium. The syngeneic group irradiated (600 rads) Balb/c mice were injected with splenocytes (30×10̂6) from matched donor Balb/c mice. The allogeneic group irradiated (600 rads) Balb/c mice were injected with splenocytes (30×10̂6) from unmatched donor C57Bl/6 mice. An additional 2-3 mice in each group were injected with 2.0 mg/kg LiCl (dissolved 1:2 LiCl:PBS), once a day from day 1 to day 5 post-transplant, sacrificed at days 3 and 5.
Total T cells (CD3+) were collected from spleens of mice of the 3 groups of the GVHD model as described above. Cells were stained for CD3 and counted by Flow Cytometry.
In order to explore the effect of GSK-3β activation state on T-cell proliferation, the GVHD model mice were treated with Lithium chloride (LiCl). Lithium chloride (LiCl) is known to affect GSK-3β activation state by regulating its phosphorylation state. Lithium chloride (LiCl) treatments were given to a separate group of allogeneic mice.

With `[Cl-].[Li+]` [LiCl, Lithium chloride] the proliferation level ([1]; 12.5 mM LiCl, 2×2 group (2×10^5 C57Bl/6 and 2×10^5 balb/c cells)) was “significantly lower”, the proliferation level ([1]; 25 mM LiCl, 1×1 group (1×10^5 C57Bl/6 and 1×10^5 balb/c cells)) was “significantly higher” and the proliferation level ([1]; 25 mM LiCl, 2×2 group) was “significantly higher”. For the same compound, the effect on proliferation ([1]; doses smaller than 12.5 mM) was “no apparent effect” and the “amount of T-cells” value (T cells (CD3+)) was “increased”.
